Reference: PMC10581189, “Cesin, a short natural variant of nisin, displays potent antimicrobial activity against major pathogens despite lacking two C-terminal macrocycles” (Microbiology Spectrum, 2023)
≈ marks a conversion by molar mass, not a printed value. Read-outs that look alike come from different tables or passages of the source. Ends that are not written are not given here.

How the values were obtained:
[1] = system: nisin resistance protein (NSR); settings: 30 µL 0.1 mg/mL peptide, agar well, L. lactis NZ9000 (pNSR) vs L. lactis NZ9000 (pEmpty); three biological replicates; Fig. 8A
[2] = system: Listeria monocytogenes LK132
[3] = system: Staphylococcus aureus LMG10147
[4] = system: Enterococcus faecium LMG11423
[5] = system: Listeria monocytogenes TT82E
proteinase K = proteinase K (Parengyodontium album, UniProt P06873); assay: Stability against proteinase K (residual antimicrobial activity); settings: 1 mg/mL proteolytic enzyme (pH 7.2), relative antimicrobial activity against L. lactis MG1363, agar well; three biological replicates; Fig. 8B
Chain of proteinase K (P06873 106-384): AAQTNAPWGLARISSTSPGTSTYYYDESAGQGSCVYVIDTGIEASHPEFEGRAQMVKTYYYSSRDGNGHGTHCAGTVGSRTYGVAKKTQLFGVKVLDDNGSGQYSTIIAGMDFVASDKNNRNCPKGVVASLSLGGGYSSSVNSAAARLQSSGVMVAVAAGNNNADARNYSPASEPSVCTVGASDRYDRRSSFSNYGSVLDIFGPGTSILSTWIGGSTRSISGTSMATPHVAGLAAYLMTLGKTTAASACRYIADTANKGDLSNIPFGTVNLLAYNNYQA

[6] = system: Lactococcus lactis MG1363
[7] = system: Listeria monocytogenes LMG10470
[8] = system: Staphylococcus aureus LMG15975 (MRSA)
[9] = system: Enterococcus faecium LMG16003 (VRE)
[10] = system: Enterococcus faecalis LMG16216 (VRE)
[11] = Thermal stability (residual antimicrobial activity); assay type: physicochemical
Procedure: (§1) An overnight culture of test strains was added at 0.1% (vol/vol) into melted GM17 agar at 45°C and poured in plates. After agar solidification, wells of 8 mm were bored and filled with 30 µL of the lantibiotic solution. When necessary, the lantibiotic was activated with 5 µL of nisP added directly into the well. Peptides were resuspended in 0.05% aqueous acetic acid solution and the cesin amount was determined using the NanoDrop (Thermo Scientific) calibrated with the extinction coefficient predicted by ExPASy (http://web.expasy.org/protparam/). The agar plates were incubated at 30°C overnight, after which, the zones of inhibition were measured. Zone diameters were measured in millimeters and recorded as area of the zone (πr^2) minus the area of the well (πr^2) in millimeters. Where necessary, cesin was compared with nisin and nisin(1–22). Assays were performed in triplicate.

L. lactis MG1363 = assay: Agar well diffusion assay of cesin analogs; assay type: cell-based, Lactococcus lactis; settings: for antimicrobial activity compared to cesin: L. lactis MG1363, 30°C overnight, triplicate, Fig. 5B, 6B, S1
Procedure: as §1

E. faecium = assay: Agar well diffusion assay of cesin analogs; assay type: cell-based, Enterococcus faecium; settings: triplicate, Fig. 5B, S1
Procedure: as §1

sheep erythrocytes = assay: Hemolytic activity assay; assay type: cell-based; settings: sheep erythrocytes 2% (vol/vol) in PBS, up to 64 µg/mL, 37°C for 40 min, absorbance 420 nm relative to Triton X-100, triplicate; Fig. 9
Procedure: The hemolytic activity of cesin and nisin was determined as previously described ([65]). Briefly, fresh sheep blood (Sigma-Aldrich) was washed with 0.1 M PBS (pH 7.4; Sigma-Aldrich) three times to remove plasma (500 × g for 5 min), and then the erythrocytes were collected and diluted 1:50 in PBS. The lantibiotics were then added at final concentrations of 64, 32, 16, 8, 4, 2, and 0 µg/mL in PBS to wells containing 2% (vol/vol) washed erythrocytes. The cells were incubated at 37°C for 40 min, then centrifuged for 5 min at 3,100 g. The supernatants were transferred to a 96-well plate, and the absorbance was measured at a wavelength of 420 nm with a Synergy HT microplate reader (BioTek, Lucerne, Switzerland). The absorbance relative to the positive control, which was treated with 0.1% Triton X-100, was defined as the percentage of hemolysis. The analysis was carried out in triplicate.

| Compound | resistance to the cleavage action of NSR [1] | MIC [2] | MIC [3] | MIC [4] | MIC [5] | MIC [6] | MIC [7] | MIC [8] | MIC [9] | MIC (Bacillus cereus CH-85) | MIC [10] | antimicrobial activity compared to cesin (L. lactis MG1363) | antimicrobial activity compared to cesin (E. faecium) | also measured |
| --- | --- | --- | --- | --- | --- | --- | --- | --- | --- | --- | --- | --- | --- | --- |
| C=C1NC(=O)[C@H](Cc2c[nH]c3ccccc23)NC(=O)C(NC(=O)C(=CC)NC(=O)[C@@H](N)[C@@H](C)CC)CSC[C@@H](C(=O)NC2C(=O)N[C@@H](C)C(=O)NCC(=O)N[C@H](C(=O)N[C@H](C(=O)NC3C(=O)NCC(=O)N[C@@H](CCCNC(=N)N)C(=O)N[C@@H]([C@@H](C)CC)C(=O)N[C@@H](CCSC)C(=O)NCC(=O)N[C@H](C(=O)N[C@@H](CC(N)=O)C(=O)N[C@@H](CCCCN)C(=O)O)CSC3C)[C@@H](C)CC)CSC2C)NC(=O)[C@H](CC(C)C)NC1=O (stereo partly shown) [Cesin] | fully resistant | 10.25 µg/mL (≈ 4.82 µM) | 5.13 µg/mL (≈ 2.41 µM) | 5.13 µg/mL (≈ 2.41 µM) | 5.13 µg/mL (≈ 2.41 µM) | 0.08 µg/mL (≈ 0.0376 µM) | 2.56 µg/mL (≈ 1.2 µM) | 5.13 µg/mL (≈ 2.41 µM) | 10.25 µg/mL (≈ 4.82 µM) | 20.50 µg/mL (≈ 9.64 µM) | 5.13 µg/mL (≈ 2.41 µM) |  |  | stability against proteinase K (proteinase K): more resistant to proteinase K; thermal stability, time stable [11]: stable for up to 4 h |
| ITSWSLCTAGCITGRIMGCNMKTATCHCSIHVSK (also: bicyclic or more (positions not given here)) [cesin NMK, cesin(1–20)-nisin(21–34) hybrid] |  |  |  |  |  |  |  |  |  |  |  | significant loss of antimicrobial activity | significant loss of antimicrobial activity | antimicrobial activity compared to cesin NK (L. lactis MG1363; Fig. 5B (L. lactis MG1363 and E. faecium, sentence names no strain)): significantly higher antimicrobial activity |
| C=C1NC(=O)[C@H]([C@@H](C)CC)NC(=O)C(NC(=O)C(=CC)NC(=O)[C@@H](N)[C@@H](C)CC)CSC[C@@H](C(=O)NC2C(=O)N3CCC[C@H]3C(=O)NCC(=O)N[C@H](C(=O)N[C@@H](CCCCN)C(=O)NC3C(=O)NCC(=O)N[C@@H](C)C(=O)N[C@@H](CC(C)C)C(=O)N[C@@H](CCSC)C(=O)NCC(=O)N[C@H](C(=O)N[C@@H](CC(N)=O)C(=O)N[C@@H](CCSC)C(=O)N[C@@H](CCCCN)C(=O)O)CSC3C)CSC2C)NC(=O)[C@H](CC(C)C)NC1=O (stereo partly shown) [Nisin(1–22), reference compound] |  | 41.00 µg/mL (≈ 19.2 µM) | 20.50 µg/mL (≈ 9.58 µM) | 41.00 µg/mL (≈ 19.2 µM) | 10.25 µg/mL (≈ 4.79 µM) | 1.28 µg/mL (≈ 0.598 µM) | 41.00 µg/mL (≈ 19.2 µM) | 20.50 µg/mL (≈ 9.58 µM) | >41.00 µg/mL | >41.00 µg/mL | >41.00 µg/mL |  |  |  |
| ITSWSLCTAGCITGRIMGCNKTATCHCSIHVSK (also: bicyclic or more (positions not given here)) [cesin NK, cesin-nisin(23–34) hybrid] |  |  |  |  |  |  |  |  |  |  |  | significant loss of antimicrobial activity | significant loss of antimicrobial activity |  |
| C=C(NC(=O)[C@@H](NC(=O)[C@H](Cc1c[nH]cn1)NC(=O)[C@@H](NC(=O)[C@H](CO)NC(=O)[C@@H]1CSC(C)C2NC(=O)[C@H](C)NC(=O)C(NC(=O)[C@H](CCCCN)NC(=O)[C@H](CCSC)NC(=O)[C@H](CC(N)=O)NC(=O)[C@@H]3CSC(C)C(NC(=O)[C@H](CCCCN)NC(=O)[C@@H]4CSC(C)C(NC(=O)[C@@H]5CSCC(NC(=O)C(=CC)NC(=O)[C@@H](N)[C@@H](C)CC)C(=O)N[C@@H]([C@@H](C)CC)C(=O)NC(=C)C(=O)N[C@@H](CC(C)C)C(=O)N5)C(=O)N5CCC[C@H]5C(=O)NCC(=O)N4)C(=O)NCC(=O)N[C@@H](C)C(=O)N[C@@H](CC(C)C)C(=O)N[C@@H](CCSC)C(=O)NCC(=O)N3)C(C)SC[C@H](NC2=O)C(=O)N[C@@H](CC(N)=O)C(=O)N1)[C@@H](C)CC)C(C)C)C(=O)N[C@@H](CCCCN)C(=O)O (stereo partly shown) [Nisin] | inactivated |  |  |  |  |  |  |  |  |  |  |  |  | hemolysis (sheep erythrocytes): comparable to that of nisin; thermal stability, time stable ([11]; incubated at 22°C, 55°C, 75°C, 95°C, read-out antimicrobial activity against L. lactis MG1363 (agar well), three biological replicates, Fig. 7A, B): stable for up to 4 h |
